Read-outs that look alike come from different tables or passages of the source.
Experiments:
[1] = molecular target: T1, Rat Striatal Nicotinic Receptors ([^3H]MLA binding sites; α7) (Rattus norvegicus, UniProt Q05941); assay: Inhibition of [^3H]methyllycaconitine binding to rat brain membranes
T1 construct: Whole brain, excluding cortex and cerebellum, was homogenized in 20 vol of ice-cold buffer; from tissue; host or cells: rat brain membranes (whole brain excluding cortex and cerebellum)
Protocol: (§1) Whole brain, excluding cortex and cerebellum, was homogenized in 20 vol of ice-cold buffer, containing (in mM): 2 HEPES, 11.8 NaCl, 0.48 KCl, 0.25 CaCl2 and 0.12 MgSO4, pH 7.5. Homogenate was centrifuged (25,000 g, 15 min, 4° C.). Pellets were resuspended in 20 vol buffer and incubated at 37° C., for 10 min, cooled to 4° C. and centrifuged (25,000 g, 15 min, 4° C.). Pellets were resuspended and centrifuged using the same conditions. Final pellets were stored in assay buffer, containing (in mM): 20 HEPES, 118 NaCl, 4.8 KCl, 2.5 CaCl2, and 1.2 MgSO4, pH 7.5 at −70° C. Upon use, final pellets were resuspended in ˜20 vol assay buffer. Samples (250 μl) contained 100-140 μg of membrane protein, 3 nM [^3H]nicotine or 3 nM [^3H]methyllycaconitine, and analog (100 nM) in assay buffer containing 50 mM Tris. Control was in the absence of analog. In [^3H]nicotine and [^3H]methyllycaconitine binding assays, nonspecific binding was determined in the presence of 10 μM cytisine and 10 μM nicotine, respectively. Incubations proceeded for 60 min at room temperature using 96-well plates and were terminated by harvesting on Unifilter-96 GF/B filter plates presoaked in 0.5% polyethylenimine, using a Packard FilterMate harvester. After washing 5 times with 350 μl ice-cold assay buffer, filter plates were dried (60 min, […]), bottom-sealed, and filled with Packard's MicroScint 20 cocktail (40 μl/well). After 60 min, filter plates were top-sealed, and radioactivity determined using a Packard TopCount. Protein concentrations were determined using the Bradford dye-binding procedure bovine serum albumin as the standard.
(§2) […] Specific binding in the [^3H]NIC binding assay is calculated as the difference between the total binding of 3 nM [^3H]NIC and nonspecific binding in the presence of 10 μM cytisine. Specific binding for the [^3H]MLA binding assay is calculated as the difference between the total binding of 3 nM [^3H]MLA to the receptors alone and its nonspecific binding in the presence of 10 μM nicotine. Analog-induced inhibition of nicotine-evoked [^3H]DA release is calculated as a percent of that in the absence of the bis-quaternary ammonium analog.

[2] = tested on: Nicotine-evoked [^3H]Dopamine Release from Superfused Rat Striatal Slices; assay: Inhibition of nicotine-evoked [^3H]dopamine overflow from superfused rat striatal slices; assay type: cell-based; conditions: nicotine 10 μM; for inhibition at 0.1 µM: analog 100 nM, superfused rat striatal slices, read-out: Inhibition Nicotine-evoked [^3H]DA release (% inhibition at 100 nM)
Protocol: The [^3H]dopamine overflow assay using superfused rat striatal slices preloaded with [^3H]dopamine was used to determine the ability of a probe concentration (100 nM) of each bis-quaternary ammonium analog to inhibited nicotine-evoked [^3H]dopamine overflow. Briefly, coronal slices of rat striata (500 μm, 6-8 mg) were obtained using a Mcllwain tissue chopper. Slices were incubated for 30 min in Krebs' buffer (in mM: 118 NaCl, 4.7 KCl, 1.2 MgCl2, 1.0 NaH2PO4, 1.3 CaCl2, 11.1 α-D-glucose, 25 NaHCO3, 0.11 L-ascorbic acid and 0.004 ethylenediaminetetraacetic acid (EDTA), pH 7.4, saturated with 95% O2/5% CO2) at 34° C. in a metabolic shaker. Slices were then incubated for an additional 30 min in fresh buffer containing 0.1 μM [^3H]dopamine. After rinsing, each slice was transferred to each one of 20 superfusion chambers, maintained at 34° C. and superfused (0.6 ml/min) with oxygenated Krebs' buffer in a Brandel Suprafusion 2500 (Biomedical Research and Development Laboratories, Inc., Gaithersburg, Md.). The buffer contained both nomifensine (10 μM), a dopamine uptake blocker, and pargyline (10 μM), a monoamine oxidase inhibitor, ensuring that [^3H]overflow primarily represented [^3H]dopamine, rather than [^3H]metabolites. Following superfusion for 60 min, two 4-min samples (2.4 ml/sample) were collected to determine basal [^3H]outflow. After collection of the second basal sample, slices from an individual rat were superfused for 40 min in the absence (0 nM; control) or presence of each bis-quaternary ammonium analog (100 nM) to determine the intrinsic activity of the analog, i.e., ability of the analog to evoke [^3H]overflow. Following 40 min of superfusion in the absence or presence of analog, nicotine (10 μM) was added to the superfusion buffer and samples were collected for an additional 40 min to determine the ability of the analog to inhibit nicotine-evoked [^3H]dopamine overflow. At least one striatal slice in each experiment was superfused for 40 min in the absence of analog, followed by superfusion with 10 μM nicotine to determine nicotine-evoked [^3H]dopamine overflow in the absence of analog (nicotine control). After collection of the superfusate samples, the slices were retrieved from the chambers and solubilized using 1 ml of TS-2 tissue solubilizer. Scintillation cocktail (4 ml) was added to the superfusate samples. The pH and volume of the solubilized tissue samples were adjusted to that of the superfusate samples. Radioactivity in the superfusate and tissue samples was determined by liquid scintillation spectroscopy (Packard model B 1600 TR Scintillation Counter, Downer's Grove, Ill.).
For individual analogs, a complete concentration response was determined using the following methodology. Rat striatal slices (500 μm thickness, 6-8 mg wet weight) were incubated for 30 minutes in Krebs buffer (118 mM NaCl, 4.7 mM KCl, 1.2 mM MgCl2, 1.0 mM NaH2PO4, 1.3 mM CaCl2, 11.1 mM glucose, 25 mM NaHCO3, 0.11 mM L-ascorbic acid, and 0.004 mM disodium EDTA; pH 7.4, and saturated with 95% O2/5% CO2) in a metabolic shaker at 34° C. Slices were rinsed with 15 mL of fresh buffer and incubated for an additional 30 minutes in fresh buffer containing 0.1 μM [^3H]dopamine (DA; 6 slices/3 mL). Subsequently, slices were rinsed with 15 mL of fresh buffer and transferred to a glass superfusion chamber. Slices were superfused (1.0 mL/min) for 60 minutes with Krebs buffer containing nomifensine (10 μM) and pargyline (10 μM) and maintained at 34° C., pH 7.4, with continual aeration (95% O2/5% CO2). Three 5-minute samples (5 mL each) were collected to determine basal outflow of [^3H]DA. The bis-quaternary analogs were added to the superfusion buffer after the collection of the third sample and remained in the buffer until 12 consecutive five minute samples were collected. Subsequently, S-(−)-nicotine (10 μM) was added to the buffer and an additional 12 consecutive five minute samples were collected. […]

[3] = molecular target: T2, Rat Striatal Nicotinic Receptors ([^3H]NIC binding sites; α4β2) (Rattus norvegicus, UniProt P09483+P12390); assay: Inhibition of [^3H]nicotine binding to rat brain membranes
T2 construct: Whole brain, excluding cortex and cerebellum, was homogenized in 20 vol of ice-cold buffer; from tissue; host or cells: rat brain membranes (whole brain excluding cortex and cerebellum)
T2 sequence (P09483 31-630): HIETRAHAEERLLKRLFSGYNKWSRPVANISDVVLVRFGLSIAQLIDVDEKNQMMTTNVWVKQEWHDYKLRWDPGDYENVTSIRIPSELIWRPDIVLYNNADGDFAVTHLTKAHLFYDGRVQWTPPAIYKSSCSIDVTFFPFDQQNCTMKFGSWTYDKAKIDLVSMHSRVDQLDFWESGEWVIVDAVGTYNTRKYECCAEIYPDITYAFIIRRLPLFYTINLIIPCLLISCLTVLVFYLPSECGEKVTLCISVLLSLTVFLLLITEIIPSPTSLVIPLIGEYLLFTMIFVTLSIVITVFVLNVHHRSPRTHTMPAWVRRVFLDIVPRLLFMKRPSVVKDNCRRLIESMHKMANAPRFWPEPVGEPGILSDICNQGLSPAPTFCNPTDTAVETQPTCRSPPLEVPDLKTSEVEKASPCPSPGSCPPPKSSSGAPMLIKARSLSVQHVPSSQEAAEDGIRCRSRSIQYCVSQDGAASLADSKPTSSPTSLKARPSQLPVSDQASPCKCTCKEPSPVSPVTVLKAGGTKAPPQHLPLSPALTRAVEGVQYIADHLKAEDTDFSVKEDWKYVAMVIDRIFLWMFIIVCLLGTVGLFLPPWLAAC
T2 sequence (P12390 25-500): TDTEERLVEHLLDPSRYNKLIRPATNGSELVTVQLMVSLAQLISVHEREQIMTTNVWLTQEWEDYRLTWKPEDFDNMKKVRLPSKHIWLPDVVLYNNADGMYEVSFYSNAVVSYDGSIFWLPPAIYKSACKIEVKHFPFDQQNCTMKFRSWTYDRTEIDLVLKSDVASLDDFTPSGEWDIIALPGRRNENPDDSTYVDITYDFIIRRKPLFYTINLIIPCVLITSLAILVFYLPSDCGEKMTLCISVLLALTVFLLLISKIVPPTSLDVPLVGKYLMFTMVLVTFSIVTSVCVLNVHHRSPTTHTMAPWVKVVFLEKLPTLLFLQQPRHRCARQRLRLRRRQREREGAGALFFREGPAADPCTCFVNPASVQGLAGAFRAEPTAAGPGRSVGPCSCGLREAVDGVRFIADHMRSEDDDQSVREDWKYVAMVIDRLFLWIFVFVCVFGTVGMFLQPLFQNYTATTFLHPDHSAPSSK
Protocol: as §1, §2

[4] = 3 nM [^3H]methyllycaconitine, nonspecific binding with 10 μM nicotine, rat brain membranes, read-out: Inhibition of [^3H]MLA Binding Ki (μM; M ± SEM)
[5] = 3 nM [^3H]nicotine, nonspecific binding with 10 μM cytisine, rat brain membranes, read-out: Inhibition of [^3H]Nicotine binding Ki (μM; M ± SEM)

T1 sequence (Q05941 23-502): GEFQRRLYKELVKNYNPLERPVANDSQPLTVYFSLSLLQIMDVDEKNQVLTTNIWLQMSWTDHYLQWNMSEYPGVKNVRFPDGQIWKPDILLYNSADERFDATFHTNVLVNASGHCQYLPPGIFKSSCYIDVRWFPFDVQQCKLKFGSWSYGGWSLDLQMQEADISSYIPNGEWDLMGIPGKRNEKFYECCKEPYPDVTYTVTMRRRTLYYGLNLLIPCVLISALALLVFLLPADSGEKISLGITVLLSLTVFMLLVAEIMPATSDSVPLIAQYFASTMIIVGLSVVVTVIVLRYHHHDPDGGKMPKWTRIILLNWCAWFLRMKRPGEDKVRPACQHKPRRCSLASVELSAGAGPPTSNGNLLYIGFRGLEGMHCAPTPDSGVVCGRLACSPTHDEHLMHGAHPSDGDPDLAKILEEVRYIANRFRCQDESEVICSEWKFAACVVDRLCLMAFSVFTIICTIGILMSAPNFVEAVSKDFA

Structure (SMILES) | Ki [1, 4] | inhibition at 0.1 µM [2] | Ki [3, 5] | Ki [1] | concentration dependent inhibition of the effect of nicotine to evoke [^3H]dopamine release (FIG. 1) ([2]; full concentration response, rat striatal slices) | Ki [3]
Cc1ccc[n+](CCCc2ccc[n+](C)c2)c1 [GZ-529A] | > 100 µM | 43% | > 100 µM |  |  | 
C[n+]1ccc(CCCc2cc[n+](C)cc2)cc1 [GZ-527B] |  | 67% |  | > 100 µM | concentration dependent inhibition | 7.88 ± 1.68 µM
C[n+]1ccccc1CCCc1cccc[n+]1C [GZ-528A] |  | 49% |  | > 100 µM |  | 8.17 ± 0.17 µM
C[n+]1cccc(CCCc2ccc[n+](C)c2)c1 [GZ-527A] | > 100 µM | 32% | 8.2 ± 1.78 µM |  |  | 
CN1CCC[C@@H]1c1ccc[n+](CCCc2ccc[n+](C)c2)c1 [GZ-530A] |  | 43% |  | > 100 µM |  | 6.62 ± 1.14 µM
Cc1cc(CCCc2cc(C)c[n+](C)c2)c[n+](C)c1 [GZ-528B] | > 100 µM | 30% | > 100 µM |  |  | 
C[n+]1cccc(CCC[n+]2ccccc2)c1 [GZ-530B] |  | 9% |  | > 100 µM |  | 23.4 ± 3.94 µM
Cc1cc(C)c[n+](CCCc2ccc[n+](C)c2)c1 [GZ-529B] |  | 25% |  | > 100 µM |  | > 100 µM

Source: US9540327B2, “Bis-quaternary ammonium salts and methods for modulating neuronal nicotinic acetylcholine receptors” (University of Kentucky Research Foundation, priority 2006, dated 2017)
